Where a name gives a salt, the structure may show the parent alone.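 Cells were grown in 96-well plates and exposed to each compound for 48 hours at five concentrations; endpoints were interpolated linearly between bracketing concentrations, or set to the highest concentration if not reached. Here, GI50 denotes the concentration required for 50% inhibition of growth.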 Active and inactive are the calls of the source. Rule as the data show it: active = GI50 up to about 1.1 µM and inactive = higher. Residues, ends and D or L forms follow the SMILES beside them. *: point of attachment. Tfa = O=C(C(F)(F)F)*
How the values were obtained:
Test in all cases: NCI tumour cell line growth inhibition, 48 h
[1] = test system: HOP-62
[2] = test system: CCRF-CEM
[3] = test system: SK-MEL-28
[4] = test system: OVCAR-3
[5] = test system: SK-MEL-2
[6] = test system: TK-10
[7] = test system: CAKI-1
[8] = test system: HL-60
[9] = test system: NCI-H460
[10] = test system: KM12
[11] = test system: K562
[12] = test system: SF-268
[13] = test system: SN12C
[14] = test system: RPMI-8226
[15] = test system: SK-OV-3
[16] = test system: UO-31
[17] = test system: OVCAR-5
[18] = test system: U-251
[19] = test system: HCT-116
[20] = test system: MCF7

Measured: GI50

COc1cc(OC)cc(-c2nc(O)c3ccccc3n2)c1
inactive: [1] 38.9 µM | [2] > 100 µM | [3] > 100 µM | [4] > 100 µM | [5] > 100 µM | [6] 43.5 µM | [7] > 100 µM | [8] > 100 µM | [9] 28.3 µM | [10] > 100 µM | [11] > 100 µM | [12] 63.2 µM | [13] > 100 µM | [14] > 100 µM | [15] 22.8 µM | [16] 71.9 µM | [17] > 100 µM | [18] 39.3 µM | [19] 42.5 µM

CC(=O)Oc1cc2c(cc1OC(C)=O)[C@H]1CC[C@]3(C)[C@@H](OC(C)=O)CC[C@H]3[C@@H]1CC2
inactive: [3] 4.15 µM | [4] 2.21 µM | [5] 3.06 µM | [6] 8.28 µM | [7] 3.22 µM | [9] 8.57 µM | [10] 8.91 µM | [11] 2.23 µM | [12] 4.66 µM | [14] 1.92 µM | [20] 6.37 µM | [15] 6.38 µM | [16] 2.19 µM | [17] 10.1 µM | [18] 4.95 µM

CCCCCC1CC=CC(NC(=O)OCc2ccccc2)C1/C=C/CCCC1OCCO1 (stereo unspecified)
inactive: [1] > 100 µM | [2] 47.5 µM | [3] > 36.5 µM | [4] 38.5 µM | [5] 35.2 µM | [6] 97.7 µM | [7] 23.5 µM | [8] 7.93 µM | [9] 51.6 µM | [10] 48 µM | [11] 24.9 µM | [12] > 42.8 µM | [13] > 100 µM | [14] 17.9 µM | [15] > 100 µM | [16] 13.1 µM | [17] > 53.8 µM | [18] 73.5 µM | [19] 35.8 µM

[N-]=[N+]=NC(c1cn(C2CC(O)C(CO)O2)c(=O)[nH]c1=O)C(I)I (stereo unspecified)
inactive: [1] > 100 µM | [2] > 100 µM | [3] > 100 µM | [4] > 100 µM | [5] > 100 µM | [6] > 100 µM | [7] > 100 µM | [8] > 100 µM | [9] > 100 µM | [10] > 100 µM | [11] > 100 µM | [12] 56.1 µM | [13] > 100 µM | [14] > 100 µM | [15] > 100 µM | [16] > 100 µM | [17] > 100 µM | [18] > 100 µM | [19] > 100 µM

O=CC(O)C(O)C(O)COc1cc(CO)cc2c1C(=O)c1ccccc1C2=O (stereo unspecified)
inactive: [1] > 100 µM | [2] > 100 µM | [3] > 100 µM | [4] 76.4 µM | [5] > 95.5 µM | [6] > 100 µM | [7] > 93.8 µM | [8] > 100 µM | [9] > 87.3 µM | [10] > 100 µM | [11] > 100 µM | [12] > 100 µM | [13] > 100 µM | [14] > 100 µM | [15] > 100 µM | [16] > 100 µM | [17] > 100 µM | [18] > 100 µM | [19] > 100 µM

C/C(=N\NC(=O)c1ccccc1O)C1=CNc2ccccc2S1
inactive: [1] 4.59 µM | [2] 3.35 µM | [3] 9.48 µM | [4] 3.01 µM | [5] 2.15 µM | [6] 5.57 µM | [7] 6.38 µM | [8] 3.54 µM | [9] 4 µM | [10] 3.94 µM | [11] 3.75 µM | [12] 3.61 µM | [13] 4.05 µM | [14] 4.9 µM | [15] 15.6 µM | [16] 2.14 µM | [17] 3.18 µM | [18] 5.87 µM | [19] 3.66 µM

O=c1[nH]c2c(nc1NC13CC4CC(CC(C4)C1)C3)c(=O)oc1ccccc12
inactive: [1] 50.1 µM | [2] > 100 µM | [3] > 100 µM | [4] > 100 µM | [5] > 100 µM | [6] > 100 µM | [7] 2.46 µM | [8] > 100 µM | [9] 70.3 µM | [10] > 100 µM | [11] > 100 µM | [12] > 100 µM | [13] > 100 µM | [14] > 100 µM | [15] > 100 µM | [16] > 100 µM | [17] > 100 µM | [18] 16.6 µM | [19] > 100 µM

CCOC(OC1=C(C#N)CCC1)C(CC)[Se]c1ccccc1 (stereo unspecified)
inactive: [1] > 100 µM | [2] 15.6 µM | [3] 40.9 µM | [4] 22.1 µM | [5] 20.9 µM | [6] > 100 µM | [7] 41 µM | [8] 12.4 µM | [9] 36.4 µM | [10] 64.4 µM | [11] 32.7 µM | [12] 18.8 µM | [13] 14.3 µM | [14] 17.9 µM | [15] > 100 µM | [16] 24.2 µM | [17] 22.7 µM | [18] 10.3 µM | [19] 26.2 µM

CCOC(=O)c1cc(NC(=O)N(CCC#N)CCN(C(=O)N[C@@H](Cc2ccccc2)C(=O)N[C@@H](CC(C)C)C(=O)NC)c2ccccc2)ccc1OC
inactive: [1] 41.8 µM | [2] 89.9 µM | [3] 28.9 µM | [4] 40.9 µM | [5] 38.2 µM | [6] 46.5 µM | [7] > 100 µM | [10] > 100 µM | [12] 48.5 µM | [13] 33.7 µM | [14] 16.3 µM | [20] 58.6 µM | [15] 70 µM | [16] 34.4 µM | [17] > 100 µM | [18] > 10 µM | [19] 42.4 µM

O=S1(=O)c2ccccc2N=C(c2ccccc2Cl)CC1c1ccc(F)cc1 (stereo unspecified)
inactive: [1] > 10 µM | [2] 14.1 µM | [3] 18.2 µM | [4] 14.3 µM | [5] 17.8 µM | [6] 22.5 µM | [7] 14.4 µM | [8] 14.5 µM | [9] 18.5 µM | [10] 16.5 µM | [11] 7.62 µM | [12] 22.1 µM | [13] 15.2 µM | [14] 3.4 µM | [15] 43.2 µM | [16] 15.2 µM | [17] 15.7 µM | [18] 15.1 µM | [19] 10.8 µM

O=C(O)CC(NC(=O)C(F)(F)F)C(=O)NC(Cc1ccc(O)cc1)C(=O)O (stereo not drawn) (Tfa-Asp-Tyr-OH; configuration not given here)
inactive: [1] > 50 µM | [3] > 50 µM | [4] > 50 µM | [5] > 50 µM | [6] > 50 µM | [7] > 50 µM | [9] > 50 µM | [10] > 50 µM | [11] > 50 µM | [12] > 50 µM | [13] > 50 µM | [14] > 50 µM | [20] > 50 µM | [15] > 50 µM | [16] > 50 µM | [17] > 50 µM | [18] > 50 µM
